Measurements reported in US12285460B2, “Pharmaceutical compositions” (RHYTHM PHARMACEUTICALS, INC., priority 2013, dated 2025).
Bridge positions count the residues as written; N and C are the ends. Square brackets hold non-standard residues; d marks the D form. Peptide text beside a SMILES is read from it. dPhe(4-F) = N[C@H](Cc1ccc(F)cc1)C(=O)O; hCys = N[C@@H](CCS)C(=O)O

How the values were obtained:
MC5R = molecular target: T1, MC5R (Homo sapiens, UniProt P33032); experiment: cAMP assay (EC50), MC5R; assay type: cell-based; details: for Ratios of EC50 values MC5/4: EC50(MC5R)/EC50(MC4R)
T1 construct: host or cells: CHO-K1 (ECL assay)
T1 sequence (P33032 whole entry): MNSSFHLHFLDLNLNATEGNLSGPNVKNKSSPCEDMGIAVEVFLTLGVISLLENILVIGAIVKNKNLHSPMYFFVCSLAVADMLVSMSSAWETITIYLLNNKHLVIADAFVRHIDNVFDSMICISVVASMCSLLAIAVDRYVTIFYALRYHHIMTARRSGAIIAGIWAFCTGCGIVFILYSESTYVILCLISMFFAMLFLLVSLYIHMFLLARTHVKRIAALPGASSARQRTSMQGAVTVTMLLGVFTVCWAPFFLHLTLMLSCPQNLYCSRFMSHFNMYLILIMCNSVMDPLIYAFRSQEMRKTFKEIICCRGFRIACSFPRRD
Procedure: Stimulation of intracellular cyclic AMP (cAMP) levels by the peptides is determined in a dose dependent manner by an electrochemiluminescence (ECL) assay (Meso Scale Discovery, Gaithersburg, MD, USA; referred to hereinafter as “MSD”). Briefly, the CHO-K1 cells stably expressing the hMC receptor subtypes are suspended in RMPI 1640® assay buffer (RMPI 1640 buffer contains 0.5 mM IBMX, and 0.2% protein cocktail (MSD blocker A)). About 7,000 cells/well of the transgenic CHO-K1 cells stably expressing hMC receptor subtypes 1, 3, 4 or 5 are dispensed in 384-well Multi-Array plates (MSD) containing integrated carbon electrodes and coated with anti-cAMP antibody. Increasing concentrations of the test compounds are added and the cells are incubated for approximately 40 minutes at 37° C. A cell lysis buffer (HEPES-buffered saline solution with MgCl2 and Triton X-100® at pH 7.3) containing 0.2% protein cocktail and 2.5 nM TAG™ ruthenium-labeled cAMP (MSD) is added and the cells are incubated for approximately 90 minutes at room temperature. At the end of the second incubation period, the read buffer (Tris-buffered solution containing an ECL co-reactant and Triton X-100 at pH 7.8) is added and the cAMP levels in the cell lysates are immediately determined by ECL detection with a Sector Imager 6000 Reader® (MSD). Data are analyzed using a computer-assisted non-linear regression analysis (XL fit; IDBS) and reported as either an EC50 value. […]
(§1) A chemiluminescence readout system that uses an enzyme fragment complementation (EFC) system with β-galactosidase (β-Gal) as the functional reporter system was used. This assay system for various melanocortin receptor systems is commercially available (cAMP Hunter GPCR assay system, Discoverx Corp, Fremont, CA). This assay utilizes the β-Gal enzyme that is split into two complementary portions; EA for Enzyme Acceptor and ED for Enzyme Donor. In the assay, the ED portion fused to cAMP is made to compete with cAMP generated by cells for binding to a cAMP-specific antibody. The EA is then added to form active β-Gal with any unbound ED-cAMP. This active enzyme then converts a chemiluminescent substrate to generate an output signal that is recorded on a standard microplate reader.
(§2) Briefly, 10000 cells per well are plated overnight and each well (cells incubated with 10 μl assay buffer) is then incubated with 4× serial concentration of the test compound in the cell assay buffer (5 μL) and cAMP antibody reagent (5 μL) for 30 min at 37° C. The cell lysis buffer (20 μL) containing ED-cAMP coupled enzyme fragment and the reporter substrate (Emerald II-Galacton Star, 5:1) is then added and incubated for 60 min at room temperature. Next, 20 μL of EA β-Gal fragment reagent is added.

[1] = Pharmacokinetics of formulations after single subcutaneous bolus in Cynomolgus monkeys; assay type: in vivo; details: cynomolgus monkey, plasma, sc, 0.5 mg/kg body weight
Procedure: A group of Cynomolgus monkeys (average body weight range of 3 to 7 kg) were randomized into a group of 6 for each formulation described above and for Formulation 3A. Each monkey in the cohort was subcutaneously administered in the scapular area with a single bolus dose of a formulation calculated at 0.5 mg/kg body weight. Blood samples were taken at various time points staring at 30 minutes post dosing to 36 or 48 hours. The plasma was harvested and peptide drug concentration assays using LC-MS/MS technique. The pharmacokinetic data is presented in Table 3 below, and the pharmacokinetic profile is set forth graphically in FIG. 1, FIG. 2, and FIG. 3.

MC1R = molecular target: T2, MC1R (Homo sapiens, UniProt Q01726); experiment: cAMP assay (EC50), MC1R; assay type: cell-based; details: EC50(MC1R)/EC50(MC4R)
T2 construct: host or cells: CHO-K1 (ECL assay)
T2 sequence (Q01726 whole entry): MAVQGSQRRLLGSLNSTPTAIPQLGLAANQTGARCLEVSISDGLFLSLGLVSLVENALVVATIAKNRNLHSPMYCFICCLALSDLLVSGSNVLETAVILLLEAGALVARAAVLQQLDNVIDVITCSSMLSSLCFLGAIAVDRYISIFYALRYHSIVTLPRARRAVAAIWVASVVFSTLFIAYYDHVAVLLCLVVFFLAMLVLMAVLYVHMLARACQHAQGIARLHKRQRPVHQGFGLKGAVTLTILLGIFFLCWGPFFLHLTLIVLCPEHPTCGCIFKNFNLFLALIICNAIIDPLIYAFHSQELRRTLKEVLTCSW
Procedure: (§3) Stimulation of intracellular cyclic AMP (cAMP) levels by the peptides is determined in a dose dependent manner by an electrochemiluminescence (ECL) assay (Meso Scale Discovery, Gaithersburg, MD, USA; referred to hereinafter as “MSD”). Briefly, the CHO-K1 cells stably expressing the hMC receptor subtypes are suspended in RMPI 1640® assay buffer (RMPI 1640 buffer contains 0.5 mM IBMX, and 0.2% protein cocktail (MSD blocker A)). About 7,000 cells/well of the transgenic CHO-K1 cells stably expressing hMC receptor subtypes 1, 3, 4 or 5 are dispensed in 384-well Multi-Array plates (MSD) containing integrated carbon electrodes and coated with anti-cAMP antibody. Increasing concentrations of the test compounds are added and the cells are incubated for approximately 40 minutes at 37° C. A cell lysis buffer (HEPES-buffered saline solution with MgCl2 and Triton X-100® at pH 7.3) containing 0.2% protein cocktail and 2.5 nM TAG™ ruthenium-labeled cAMP (MSD) is added and the cells are incubated for approximately 90 minutes at room temperature. At the end of the second incubation period, the read buffer (Tris-buffered solution containing an ECL co-reactant and Triton X-100 at pH 7.8) is added and the cAMP levels in the cell lysates are immediately determined by ECL detection with a Sector Imager 6000 Reader® (MSD). Data are analyzed using a computer-assisted non-linear regression analysis (XL fit; IDBS) and reported as either an EC50 value.
(§4) Human MC4-R transfected cells are grown to confluence in 96 well plates (plating approximately 250,000 cells per well). The cells are treated in triplicate sets with 0.2 mM isobutylmethylxanthine (IBMX) and graded concentrations of the peptide or alternatively the peptide in the presence of 20 nM NDP-MSH. Cells similarly treated but with only 20 nM NDP-MSH serve as positive controls in a volume of 200 μL. A buffer blank serving as a negative control is also included. After incubation of one hour at 37° C., the cells are lysed by the addition of 50 μL of a cell lysis buffer. Total cAMP accumulated in 250 μL of this incubation medium is quantitated using a commercially available low pH cAMP assay kit (Amersham BioSciences) as per procedure specified by the kit supplier. […] The data for agonist is plotted and curve fitted to determine the EC50 value. A peptide showing accumulation in the same range as the negative control (buffer blank in the absence of alpha-MSH) is ineffective at the test concentration. A peptide showing attenuated accumulation is considered to be an antagonist if there is inhibition in cAMP when alpha-MSH is also present in the assay. Similar assay can be performed with hMC-1R, hMC-3R, and hMC-5R cells.
as §1, with “ED-cAMP.” for “ED-cAMP. This active enzyme then converts a chemiluminescent substrate to generate an output signal that is recorded on a standard microplate reader.”
as §2

MC3R = molecular target: T3, MC3R (Homo sapiens, UniProt P41968); experiment: cAMP assay (EC50), MC3R; assay type: cell-based; details: EC50(MC3R)/EC50(MC4R)
T3 construct: host or cells: CHO-K1 (ECL assay)
T3 sequence (P41968 whole entry): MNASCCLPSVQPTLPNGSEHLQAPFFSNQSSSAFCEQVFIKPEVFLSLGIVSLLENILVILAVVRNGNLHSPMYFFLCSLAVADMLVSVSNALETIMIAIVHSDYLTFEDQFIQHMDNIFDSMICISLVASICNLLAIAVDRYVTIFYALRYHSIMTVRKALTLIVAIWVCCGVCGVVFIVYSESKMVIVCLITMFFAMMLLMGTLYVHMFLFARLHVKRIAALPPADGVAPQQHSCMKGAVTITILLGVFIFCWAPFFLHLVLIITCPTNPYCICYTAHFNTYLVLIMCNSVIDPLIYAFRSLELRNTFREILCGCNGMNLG
Procedure: as §3, §4
as §1, with “ED-cAMP.” for “ED-cAMP. This active enzyme then converts a chemiluminescent substrate to generate an output signal that is recorded on a standard microplate reader.”
as §2

CC(=O)N[C@@H](CCCNC(=N)N)C(=O)N[C@H]1CSSC[C@@H](C(N)=O)NC(=O)[C@H](Cc2c[nH]c3ccccc23)NC(=O)[C@H](CCCNC(=N)N)NC(=O)[C@@H](Cc2ccccc2)NC(=O)[C@H](Cc2c[nH]cn2)NC(=O)[C@@H](C)NC1=O [Peptide 1]
EC50 (MC5R): 1.6 µM
Cmax [1]: 1100 ng/mL
Tmax [1]: 30 min

CC(=O)N[C@@H](CCCNC(=N)N)C(=O)N[C@H]1CSSC[C@@H](C(N)=O)NC(=O)[C@H](Cc2c[nH]c3ccccc23)NC(=O)[C@H](CCCNC(=N)N)NC(=O)[C@@H](Cc2ccc(F)cc2)NC(=O)[C@@H]2CCCN2C(=O)[C@@H](C)NC1=O [Compound 14, Ac-Arg-cyclo[Cys-D-Ala-Pro-D-Phe(p-F)-Arg-Trp-Cys]-NH2] (Ac-RC[dA]P[dPhe(4-F)]RWC-NH2; disulfide 2-8)
Ratios of EC50 values MC5/4 (MC5R): 12
Ratios of EC50 values MC1/4 (MC1R): 7
Ratios of EC50 values MC3/4 (MC3R): >400

CC(=O)N[C@@H](CCCNC(=N)N)C(=O)N[C@H]1CSSC[C@@H](C(N)=O)NC(=O)[C@H](Cc2c[nH]c3ccccc23)NC(=O)[C@H](CCCNC(=N)N)NC(=O)[C@@H](Cc2ccccc2)NC(=O)[C@H](Cc2c[nH]c3ccccc23)NC(=O)[C@@H](C)NC1=O [Compound 7, Ac-Arg-cyclo[Cys-D-Ala-Trp-D-Phe-Arg-Trp-Cys]-NH2] (Ac-RC[dA]W[dF]RWC-NH2; disulfide 2-8)
Ratios of EC50 values MC5/4 (MC5R): 7
Ratios of EC50 values MC1/4 (MC1R): 8
Ratios of EC50 values MC3/4 (MC3R): >290

CC(=O)N[C@@H](CCCNC(=N)N)C(=O)N[C@H]1CSSC[C@@H](C(N)=O)NC(=O)[C@H](Cc2c[nH]c3ccccc23)NC(=O)[C@H](CCCNC(=N)N)NC(=O)[C@@H](Cc2ccccc2)NC(=O)[C@H](Cc2cncn2C)NC(=O)[C@@H](C)NC1=O [Compound 5, Ac-Arg-cyclo[Cys-D-Ala-His(3-Me)-D-Phe-Arg-Trp-Cys]-NH2]
Ratios of EC50 values MC5/4 (MC5R): 945
Ratios of EC50 values MC1/4 (MC1R): 4
Ratios of EC50 values MC3/4 (MC3R): 350

CC(=O)N[C@@H](CCCNC(=N)N)C(=O)N[C@H]1CSSC[C@@H](C(N)=O)NC(=O)[C@H](Cc2c[nH]c3ccccc23)NC(=O)[C@H](CCCNC(=N)N)NC(=O)[C@@H](Cc2ccccc2)NC(=O)[C@H](CCC(N)=O)NC(=O)[C@@H](C)NC1=O [Compound 8, Ac-Arg-cyclo[Cys-D-Ala-Gln-D-Phe-Arg-Trp-Cys]-NH2] (Ac-RC[dA]Q[dF]RWC-NH2; disulfide 2-8)
Ratios of EC50 values MC5/4 (MC5R): 155
Ratios of EC50 values MC1/4 (MC1R): 40
Ratios of EC50 values MC3/4 (MC3R): 5

CC(=O)N[C@@H](CCCNC(=N)N)C(=O)N[C@H]1CCSSC[C@@H](C(N)=O)NC(=O)[C@H](Cc2c[nH]c3ccccc23)NC(=O)[C@H](CCCNC(=N)N)NC(=O)[C@@H](Cc2ccccc2)NC(=O)[C@@H](C)NC1=O [Compound 16, Ac-Arg-cyclo[hCys-D-Ala-D-Phe-Arg-Trp-Cys]-NH2] (Ac-R[hCys][dA][dF]RWC-NH2; disulfide 2-7)
Ratios of EC50 values MC5/4 (MC5R): >1338
Ratios of EC50 values MC1/4 (MC1R): 120
Ratios of EC50 values MC3/4 (MC3R): 420

CC(=O)N[C@@H](CCCNC(=N)N)C(=O)N[C@H]1CSSC[C@@H](C(N)=O)NC(=O)[C@H](Cc2c[nH]c3ccccc23)NC(=O)[C@H](CCCNC(=N)N)NC(=O)[C@@H](Cc2ccccc2)NC(=O)[C@@H]2CCCN2C(=O)[C@@H](C)NC1=O [Compound 13, Ac-Arg-cyclo[Cys-D-Ala-Pro-D-Phe-Arg-Trp-Cys]-NH2] (Ac-RC[dA]P[dF]RWC-NH2; disulfide 2-8)
Ratios of EC50 values MC5/4 (MC5R): 13
Ratios of EC50 values MC1/4 (MC1R): 5
Ratios of EC50 values MC3/4 (MC3R): >200
